Counter-ions that a name gives are not always drawn. Positions of bridges follow the written chain, without caps; N, C: chain ends. Non-standard residues stand in square brackets, D forms with d. Residues, ends and D or L forms follow the SMILES beside them. Orn = NCCC[C@H](N)C(=O)O; Mpa = O=C(O)CCS
Tests used:
[1] = target: ATP-binding cassette sub-family C member 2 (Homo sapiens, UniProt Q92887); experiment: Inhibition of human MRP2 overexpressed in Sf9 cell membrane vesicles assessed as uptake of [3H]-estradiol-17beta-D-glucuronide in presence of ATP and GSH measured after 20 mins by membrane vesicle transport assay
Bile salt export pump = Bile salt export pump (Homo sapiens, UniProt O95342); experiment: Inhibition of human BSEP overexpressed in Sf9 cell membrane vesicles assessed as uptake of [3H]-taurocholate in presence of ATP measured after 15 to 20 mins by membrane vesicle transport assay; type: ADME, cell-based
[2] = target: T1, ATP-binding cassette sub-family C member 4 (Homo sapiens, UniProt O15439); experiment: Inhibition of human MRP4 overexpressed in Sf9 cell membrane vesicles assessed as uptake of [3H]-estradiol-17beta-D-glucuronide in presence of ATP and GSH measured after 20 mins by membrane vesicle transport assay; type: ADME, cell-based
T1 sequence (O15439 whole entry): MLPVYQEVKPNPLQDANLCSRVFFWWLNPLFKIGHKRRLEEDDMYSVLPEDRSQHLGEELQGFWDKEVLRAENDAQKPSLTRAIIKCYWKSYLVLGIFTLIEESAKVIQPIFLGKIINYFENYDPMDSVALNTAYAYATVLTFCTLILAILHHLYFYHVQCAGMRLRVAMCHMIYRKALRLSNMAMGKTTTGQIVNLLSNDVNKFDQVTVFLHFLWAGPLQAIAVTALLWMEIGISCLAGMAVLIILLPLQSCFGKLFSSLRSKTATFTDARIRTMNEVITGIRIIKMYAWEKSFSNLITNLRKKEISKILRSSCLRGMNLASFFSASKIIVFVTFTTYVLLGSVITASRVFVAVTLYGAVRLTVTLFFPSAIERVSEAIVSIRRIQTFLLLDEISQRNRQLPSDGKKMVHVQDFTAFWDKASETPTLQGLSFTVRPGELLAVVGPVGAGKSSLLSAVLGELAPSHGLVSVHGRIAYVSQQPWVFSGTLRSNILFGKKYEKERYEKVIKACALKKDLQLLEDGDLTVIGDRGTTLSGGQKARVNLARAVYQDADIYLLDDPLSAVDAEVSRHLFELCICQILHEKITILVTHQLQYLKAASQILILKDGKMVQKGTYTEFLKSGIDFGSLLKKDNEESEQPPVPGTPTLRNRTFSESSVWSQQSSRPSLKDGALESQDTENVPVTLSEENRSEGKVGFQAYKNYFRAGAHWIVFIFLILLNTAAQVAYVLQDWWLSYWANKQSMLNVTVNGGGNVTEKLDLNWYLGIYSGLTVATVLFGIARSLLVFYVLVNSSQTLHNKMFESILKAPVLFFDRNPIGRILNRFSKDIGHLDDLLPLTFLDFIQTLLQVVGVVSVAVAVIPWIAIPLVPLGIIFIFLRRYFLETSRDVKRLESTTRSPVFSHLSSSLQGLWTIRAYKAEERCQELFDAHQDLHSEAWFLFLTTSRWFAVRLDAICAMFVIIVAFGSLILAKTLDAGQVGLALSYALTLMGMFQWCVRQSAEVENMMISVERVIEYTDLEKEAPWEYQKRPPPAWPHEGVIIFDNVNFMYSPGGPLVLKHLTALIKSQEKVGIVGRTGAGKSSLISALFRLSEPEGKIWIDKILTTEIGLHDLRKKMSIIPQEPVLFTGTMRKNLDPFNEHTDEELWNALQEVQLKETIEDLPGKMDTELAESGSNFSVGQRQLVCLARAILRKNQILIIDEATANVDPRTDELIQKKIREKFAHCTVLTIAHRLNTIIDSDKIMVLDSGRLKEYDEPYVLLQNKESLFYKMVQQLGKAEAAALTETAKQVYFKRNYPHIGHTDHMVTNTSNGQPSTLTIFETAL

[3] = target: ATP-binding cassette sub-family C member 3 (Homo sapiens, UniProt O15438); experiment: Inhibition of human MRP3 overexpressed in Sf9 insect cell membrane vesicles assessed as uptake of [3H]-estradiol-17beta-D-glucuronide in presence of ATP and GSH measured after 10 mins by membrane vesicle transport assay; type: ADME, cell-based
Sequence of ATP-binding cassette sub-family C member 3 (O15438 whole entry): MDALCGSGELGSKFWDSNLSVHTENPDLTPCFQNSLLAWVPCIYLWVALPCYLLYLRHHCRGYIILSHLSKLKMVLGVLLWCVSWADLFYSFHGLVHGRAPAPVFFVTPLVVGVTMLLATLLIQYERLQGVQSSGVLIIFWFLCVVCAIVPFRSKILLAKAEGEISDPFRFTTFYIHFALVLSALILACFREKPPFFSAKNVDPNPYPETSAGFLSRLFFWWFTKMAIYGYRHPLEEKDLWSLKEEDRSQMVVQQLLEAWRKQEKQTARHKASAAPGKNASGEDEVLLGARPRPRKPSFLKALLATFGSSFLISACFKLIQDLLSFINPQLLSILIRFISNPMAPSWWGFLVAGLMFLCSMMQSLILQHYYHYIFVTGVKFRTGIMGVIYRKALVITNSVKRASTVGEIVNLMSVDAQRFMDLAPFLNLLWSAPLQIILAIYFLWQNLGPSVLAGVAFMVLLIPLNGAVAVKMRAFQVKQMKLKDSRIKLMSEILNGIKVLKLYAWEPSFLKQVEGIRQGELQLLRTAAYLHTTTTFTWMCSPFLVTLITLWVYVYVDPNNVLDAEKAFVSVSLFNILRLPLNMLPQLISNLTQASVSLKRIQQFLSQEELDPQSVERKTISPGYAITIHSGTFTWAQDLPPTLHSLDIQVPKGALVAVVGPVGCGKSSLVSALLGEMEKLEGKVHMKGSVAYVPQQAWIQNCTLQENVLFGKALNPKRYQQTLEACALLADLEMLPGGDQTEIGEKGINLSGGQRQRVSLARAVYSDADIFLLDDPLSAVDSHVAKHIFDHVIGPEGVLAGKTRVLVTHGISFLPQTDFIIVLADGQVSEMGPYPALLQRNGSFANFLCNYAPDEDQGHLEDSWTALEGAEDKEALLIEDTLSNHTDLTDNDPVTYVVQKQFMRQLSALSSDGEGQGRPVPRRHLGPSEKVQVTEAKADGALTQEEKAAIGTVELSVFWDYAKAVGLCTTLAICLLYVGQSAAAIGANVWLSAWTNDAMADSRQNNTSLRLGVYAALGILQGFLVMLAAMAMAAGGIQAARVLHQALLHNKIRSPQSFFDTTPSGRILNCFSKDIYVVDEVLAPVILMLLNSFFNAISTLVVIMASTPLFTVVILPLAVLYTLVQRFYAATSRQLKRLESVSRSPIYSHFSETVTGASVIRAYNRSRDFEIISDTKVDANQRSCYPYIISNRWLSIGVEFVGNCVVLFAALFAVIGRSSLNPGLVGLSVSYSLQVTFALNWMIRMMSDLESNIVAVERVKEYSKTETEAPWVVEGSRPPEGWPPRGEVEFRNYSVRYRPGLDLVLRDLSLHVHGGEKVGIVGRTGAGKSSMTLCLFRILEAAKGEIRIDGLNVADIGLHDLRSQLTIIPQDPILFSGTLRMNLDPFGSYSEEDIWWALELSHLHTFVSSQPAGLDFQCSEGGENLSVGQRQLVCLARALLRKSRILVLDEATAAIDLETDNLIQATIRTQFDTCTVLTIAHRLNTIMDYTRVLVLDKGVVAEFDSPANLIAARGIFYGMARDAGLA

Sequence of Bile salt export pump (O95342 whole entry): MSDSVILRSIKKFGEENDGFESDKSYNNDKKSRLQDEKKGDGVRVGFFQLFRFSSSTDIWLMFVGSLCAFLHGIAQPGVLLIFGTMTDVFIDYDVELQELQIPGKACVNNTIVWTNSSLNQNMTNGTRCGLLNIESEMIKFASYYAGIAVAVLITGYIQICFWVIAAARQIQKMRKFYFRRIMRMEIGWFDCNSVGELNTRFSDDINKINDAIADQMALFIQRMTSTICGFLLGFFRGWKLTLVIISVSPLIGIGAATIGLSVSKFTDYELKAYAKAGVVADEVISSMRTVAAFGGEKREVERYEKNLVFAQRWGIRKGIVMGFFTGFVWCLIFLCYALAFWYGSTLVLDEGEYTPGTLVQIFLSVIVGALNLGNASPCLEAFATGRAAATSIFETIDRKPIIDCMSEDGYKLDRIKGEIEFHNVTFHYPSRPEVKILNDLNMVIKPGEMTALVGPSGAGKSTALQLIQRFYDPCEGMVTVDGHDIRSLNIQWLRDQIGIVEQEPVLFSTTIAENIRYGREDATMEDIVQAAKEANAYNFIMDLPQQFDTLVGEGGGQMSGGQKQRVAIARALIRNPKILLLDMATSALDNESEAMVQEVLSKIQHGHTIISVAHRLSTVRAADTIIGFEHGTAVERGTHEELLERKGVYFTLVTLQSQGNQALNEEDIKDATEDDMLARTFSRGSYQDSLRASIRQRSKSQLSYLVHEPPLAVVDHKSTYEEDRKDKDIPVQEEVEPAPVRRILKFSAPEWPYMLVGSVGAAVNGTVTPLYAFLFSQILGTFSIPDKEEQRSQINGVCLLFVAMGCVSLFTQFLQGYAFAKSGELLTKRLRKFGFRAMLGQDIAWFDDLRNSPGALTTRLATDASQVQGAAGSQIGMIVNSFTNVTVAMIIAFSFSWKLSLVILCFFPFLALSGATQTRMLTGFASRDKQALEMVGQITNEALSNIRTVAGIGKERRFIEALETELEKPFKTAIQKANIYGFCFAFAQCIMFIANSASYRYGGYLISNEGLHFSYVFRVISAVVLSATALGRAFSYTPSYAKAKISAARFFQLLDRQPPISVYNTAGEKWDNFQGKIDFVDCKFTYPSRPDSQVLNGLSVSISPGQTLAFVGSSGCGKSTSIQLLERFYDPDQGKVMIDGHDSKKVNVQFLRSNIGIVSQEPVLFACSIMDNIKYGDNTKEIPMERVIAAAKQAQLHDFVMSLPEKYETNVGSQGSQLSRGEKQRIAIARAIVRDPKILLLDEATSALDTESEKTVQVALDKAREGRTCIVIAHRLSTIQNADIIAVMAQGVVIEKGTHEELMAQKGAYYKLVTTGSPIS
Sequence of ATP-binding cassette sub-family C member 2 (Q92887 whole entry): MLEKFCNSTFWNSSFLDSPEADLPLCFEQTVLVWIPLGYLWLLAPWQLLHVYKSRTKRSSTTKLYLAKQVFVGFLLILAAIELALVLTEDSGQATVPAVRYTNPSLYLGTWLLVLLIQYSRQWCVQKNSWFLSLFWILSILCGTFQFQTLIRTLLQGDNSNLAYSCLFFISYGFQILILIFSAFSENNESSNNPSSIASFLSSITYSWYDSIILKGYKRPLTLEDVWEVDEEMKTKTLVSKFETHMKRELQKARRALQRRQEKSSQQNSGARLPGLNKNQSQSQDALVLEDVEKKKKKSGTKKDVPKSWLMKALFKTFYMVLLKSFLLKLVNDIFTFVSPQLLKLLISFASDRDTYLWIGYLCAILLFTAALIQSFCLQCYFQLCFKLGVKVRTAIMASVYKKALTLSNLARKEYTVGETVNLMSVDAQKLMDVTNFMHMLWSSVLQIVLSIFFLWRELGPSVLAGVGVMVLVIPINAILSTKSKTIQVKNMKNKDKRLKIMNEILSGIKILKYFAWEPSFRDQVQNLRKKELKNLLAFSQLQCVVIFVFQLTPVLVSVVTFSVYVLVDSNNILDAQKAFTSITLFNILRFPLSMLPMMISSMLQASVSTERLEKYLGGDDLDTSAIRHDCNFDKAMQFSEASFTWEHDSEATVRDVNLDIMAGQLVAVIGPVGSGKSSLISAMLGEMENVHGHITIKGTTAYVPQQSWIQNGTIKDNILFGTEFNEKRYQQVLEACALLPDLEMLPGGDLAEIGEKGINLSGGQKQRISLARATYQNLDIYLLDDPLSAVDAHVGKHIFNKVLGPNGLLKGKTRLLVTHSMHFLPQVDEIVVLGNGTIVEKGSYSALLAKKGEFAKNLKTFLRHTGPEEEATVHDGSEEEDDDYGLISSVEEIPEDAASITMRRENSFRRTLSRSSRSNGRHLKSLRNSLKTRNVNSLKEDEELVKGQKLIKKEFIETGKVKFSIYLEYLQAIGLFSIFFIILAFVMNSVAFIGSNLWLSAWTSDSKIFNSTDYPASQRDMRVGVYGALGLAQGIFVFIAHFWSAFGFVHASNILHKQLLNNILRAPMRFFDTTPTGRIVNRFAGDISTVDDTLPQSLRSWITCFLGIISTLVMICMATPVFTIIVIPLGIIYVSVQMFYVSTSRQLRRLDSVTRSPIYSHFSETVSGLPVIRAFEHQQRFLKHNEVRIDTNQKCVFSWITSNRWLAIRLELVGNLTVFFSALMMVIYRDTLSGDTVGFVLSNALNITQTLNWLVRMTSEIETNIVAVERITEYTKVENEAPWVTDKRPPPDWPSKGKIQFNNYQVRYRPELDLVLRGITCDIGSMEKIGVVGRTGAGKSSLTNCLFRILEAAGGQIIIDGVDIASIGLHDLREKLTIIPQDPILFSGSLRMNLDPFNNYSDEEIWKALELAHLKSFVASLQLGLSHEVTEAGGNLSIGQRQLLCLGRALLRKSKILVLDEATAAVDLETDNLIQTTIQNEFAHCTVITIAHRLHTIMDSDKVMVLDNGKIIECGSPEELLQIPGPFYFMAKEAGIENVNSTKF

SMILES | IC50 [1] | IC50 (Bile salt export pump) | IC50 [2] | IC50 [3]
CC[C@H](C)C(=O)O[C@H]1C[C@H](O)C=C2C=C[C@H](C)[C@H](CC[C@@H](O)C[C@@H](O)CC(=O)O)[C@H]21 [PRAVASTATIN SODIUM] | > 133 µM | > 133 µM | > 133 µM | 125 µM
NCCCC[C@H](NC(=O)[C@@H]1CCCN1C(=O)[C@@H]1CSSC[C@H](NC(=O)CNC(=O)CNC(=O)CN)C(=O)N[C@@H](Cc2ccc(O)cc2)C(=O)N[C@@H](Cc2ccccc2)C(=O)N[C@@H](CCC(N)=O)C(=O)N[C@@H](CC(N)=O)C(=O)N1)C(=O)NCC(N)=O (H-GGGCYFQNCPKG-NH2; disulfide 4-9) | > 133 µM | > 133 µM | > 133 µM | > 133 µM
CC(C)C[C@H](CN)CC(=O)O [PREGABALIN] | > 133 µM | > 133 µM | > 133 µM | > 133 µM
CCOc1ccc(C[C@H]2NC(=O)CCSSC[C@@H](C(=O)N3CCC[C@H]3C(=O)N[C@@H](CCCN)C(=O)NCC(N)=O)NC(=O)[C@H](CC(N)=O)NC(=O)[C@H]([C@@H](C)O)NC(=O)[C@H]([C@@H](C)CC)NC2=O)cc1 [ATOSIBAN] ([Mpa][dY](Et)ITNCP[Orn]G-NH2; disulfide 1-6) | > 133 µM | > 133 µM | > 133 µM | > 133 µM
Clc1ccc2c(c1)C(N1CCNCC1)=Nc1ccccc1O2 [AMOXAPINE] | > 133 µM | > 133 µM | > 133 µM | > 133 µM
NS(=O)(=O)c1cc(C2(O)NC(=O)c3ccccc32)ccc1Cl (centres undefined) [CHLORTHALIDONE] | > 133 µM | > 133 µM | > 133 µM | > 133 µM
CC(=O)O[C@H]1C[C@@H]2CC[C@@H]3[C@H](CC[C@@]4(C)[C@H]3C[C@H]([N+]3(C)CCCCC3)[C@@H]4OC(C)=O)[C@@]2(C)C[C@@H]1N1CCCCC1 [VECURONIUM BROMIDE] | > 133 µM | > 133 µM | > 133 µM | > 133 µM
NCC[C@H](O)C(=O)N[C@@H]1C[C@H](N)[C@@H](O[C@H]2O[C@H](CN)[C@@H](O)[C@H](O)[C@H]2O)[C@H](O)[C@H]1O[C@H]1O[C@H](CO)[C@@H](O)[C@H](N)[C@H]1O [AMIKACIN] | > 133 µM | > 133 µM | > 133 µM | > 133 µM
C[C@H]1O[C@@H](O[C@H]2[C@@H](O)C[C@H](O[C@H]3[C@@H](O)C[C@H](O[C@H]4CC[C@@]5(C)[C@H](CC[C@@H]6[C@@H]5CC[C@]5(C)[C@@H](C7=CC(=O)OC7)CC[C@]65O)C4)O[C@@H]3C)O[C@@H]2C)C[C@H](O)[C@@H]1O [DIGITOXIN] | > 133 µM | 31 µM | > 133 µM | > 133 µM
Cc1nnc(C(C)C)n1[C@@H]1C[C@H]2CC[C@@H](C1)N2CC[C@H](NC(=O)C1CCC(F)(F)CC1)c1ccccc1 [MARAVIROC] | > 133 µM | 110 µM | > 133 µM | > 133 µM
Nc1nc(O)c2ncn(COC(CO)CO)c2n1 [GANCICLOVIR] | > 133 µM | > 133 µM | > 133 µM | > 133 µM
CN(C)CCC[C@@]1(c2ccc(F)cc2)OCc2cc(C#N)ccc21 [ESCITALOPRAM OXALATE] | > 133 µM | > 133 µM | > 133 µM | > 133 µM
COc1ccccc1OCCNCC(O)COc1cccc2[nH]c3ccccc3c12 (centres undefined) [CARVEDILOL] | > 133 µM | > 133 µM | > 133 µM | > 133 µM
COc1cccc2c1C(=O)c1c(O)c3c(c(O)c1C2=O)C[C@@](O)(C(=O)CO)C[C@@H]3O[C@H]1C[C@H](N)[C@@H](O)[C@H](C)O1 [EPIRUBICIN HYDROCHLORIDE] | > 133 µM | > 133 µM | > 133 µM | > 133 µM
Nc1ncn([C@H]2C[C@H](O)[C@@H](CO)O2)c(=O)n1 [DECITABINE] | > 133 µM | > 133 µM | > 133 µM | > 133 µM
C=C1C[C@@H]2[C@H](CC[C@]3(C)C(=O)CC[C@@H]23)[C@@]2(C)C=CC(=O)C=C12 [EXEMESTANE] | > 133 µM | 90 µM | > 133 µM | > 133 µM

SMILES | IC50 [1] | IC50 (Bile salt export pump) | IC50 [2] | IC50 [3]
[H]/N=C(/N)N/C(=N/[H])NCCc1ccccc1 [PHENFORMIN] | > 133 µM | > 133 µM | > 133 µM | > 133 µM
COC(=O)[C@@H]1CC2=CC(=O)CC[C@]2(C)[C@@]23O[C@@H]2C[C@@]2(C)[C@@H](CC[C@@]24CCC(=O)O4)[C@H]13 [EPLERENONE] | > 133 µM | > 133 µM | > 133 µM | > 133 µM
Cc1cc(NS(=O)(=O)c2ccc(N)cc2)no1 [SULFAMETHOXAZOLE] | > 133 µM | > 133 µM | > 133 µM | > 133 µM
CC1(C)O[C@@H]2[C@@H](CO[C@@]3(COS(N)(=O)=O)OC(C)(C)O[C@@H]23)O1 [TOPIRAMATE] | > 133 µM | > 133 µM | > 133 µM | > 133 µM
O=C(NC1CCN(CCc2c[nH]c3ccccc23)CC1)c1ccccc1 [INDORAMIN] | > 133 µM | > 133 µM | > 133 µM | > 133 µM
C#C[C@]1(O)C=C[C@H]2[C@@H]3CCC4=CC(=O)CC[C@@H]4[C@H]3CC[C@@]21CC [GESTODENE] | > 133 µM | > 133 µM | > 133 µM | > 133 µM
CC[C@H](C)[C@@H]1NC(=O)[C@H](Cc2ccc(O)cc2)NC(=O)[C@@H](N)CSSC[C@@H](C(=O)N2CCC[C@H]2C(=O)N[C@@H](CC(C)C)C(=O)NCC(N)=O)NC(=O)[C@H](CC(N)=O)NC(=O)[C@H](CCC(N)=O)NC1=O | > 133 µM | > 133 µM | > 133 µM | > 133 µM
CC(C)=CCC1C(=O)N(c2ccccc2)N(c2ccccc2)C1=O [FEPRAZONE] | > 133 µM | 73.9 µM | > 133 µM | > 133 µM
CCN1CCC[C@H]1CNC(=O)c1c(OC)ccc(Br)c1OC [REMOXIPRIDE] | > 133 µM | > 133 µM | > 133 µM | > 133 µM
CCCCC(=O)N(Cc1ccc(-c2ccccc2-c2nnn[nH]2)cc1)[C@H](C(=O)O)C(C)C | > 133 µM | > 133 µM | > 133 µM | > 133 µM
O=C1Cc2cc(CCN3CCN(c4nsc5ccccc45)CC3)c(Cl)cc2N1 [ZIPRASIDONE MESYLATE] | > 133 µM | > 133 µM | > 133 µM | > 133 µM
NC(=O)CC[C@@H]1NC(=O)[C@H](Cc2ccccc2)NC(=O)[C@H](Cc2ccc(O)cc2)NC(=O)[C@@H](N)CSSC[C@@H](C(=O)N2CCC[C@H]2C(=O)N[C@@H](CCCN=C(N)N)C(=O)NCC(N)=O)NC(=O)[C@H](CC(N)=O)NC1=O [VASOPRESSIN] | > 133 µM | > 133 µM | > 133 µM | > 133 µM
N[C@@H](C(=O)N[C@@H]1C(=O)N2C(C(=O)O)=C(Cl)CS[C@H]12)c1ccccc1 [CEFACLOR ANHYDROUS] | > 133 µM | > 133 µM | > 133 µM | > 133 µM
NCCCC(N)(C(=O)O)C(F)F (centres undefined) [EFLORNITHINE HYDROCHLORIDE] | > 133 µM | > 133 µM | > 133 µM | > 133 µM
CN1C(C(=O)Nc2ccccn2)=C(O)c2sc(Cl)cc2S1(=O)=O [LORNOXICAM] | > 133 µM | 7.56 µM | > 133 µM | > 133 µM
